Tests used:
[1] = target: T1, 7S globulin (β-conglycinin); assay: intrinsic fluorescence quenching, modified double logarithm model; format: binding, Glycine max; settings: Trizma buffer pH 7.0, I = 0.05 M, 25 °C; excitation 280 nm; protein 5 μM, FA 0-20 μM (methods section prints mM)
T1 construct: gene CG-1; native 7S fraction from defatted soybean flour (Nagano method), lyophilized; mixed trimers of alpha, alpha' and beta; 150-200 kDa; minor gamma-conglycinin
Source text: intrinsic fluorescence quenching, modified double logarithm model on 7S globulin (β-conglycinin)

[2] = target: T2, 11S globulin (glycinin); assay: as above; format: binding, Glycine max; settings: Trizma buffer pH 7.0, I = 0.05 M, 25 °C; excitation 280 nm; protein 5 μM, FA 0-20 μM (methods section prints mM)
T2 construct: gene GY1; native 11S fraction from defatted soybean flour (Nagano method), lyophilized; hexamer of non-identical subunits, each acidic A and basic B polypeptide joined by disulfide; 300-380 kDa
Source text: intrinsic fluorescence quenching, modified double logarithm model on 11S globulin (glycinin)

## Nc1nc2ncc(CNc3ccc(C(=O)N[C@@H](CCC(=O)O)C(=O)O)cc3)nc2c(=O)[nH]1 [folic acid]
[1]
  Parameters derived from modified double logarithm model / Ka [M^-1]: 4.00 × 10^4
[2]
  Parameters derived from modified double logarithm model / Ka [M^-1]: 4.36 × 10^4
